Reference: ChEMBL document CHEMBL1201862, “PubChem BioAssay data set” (2004)
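Values below derive from 48-hour exposures of cells grown in 96-well plates, with endpoints linearly interpolated between the two concentrations bracketing the appropriate inhibition level. GI50 marks 50% less growth.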 Activity calls are given as the source filed them. No stated cut-off is given here; in the data, active = GI50 up to about 1.1 µM and inactive = higher.

How the values were obtained:
Assay in all cases: DTP human tumour cell line panel, 48 h
OVCAR-4 = system: OVCAR-4
LOX IMVI = system: LOX IMVI
RPMI-8226 = system: RPMI-8226
IGROV-1 = system: IGROV-1
OVCAR-5 = system: OVCAR-5
NCI-H522 = system: NCI-H522
DMS-114 = system: DMS-114
UACC-257 = system: UACC-257
CAKI-1 = system: CAKI-1
SF-539 = system: SF-539
CCRF-CEM = system: CCRF-CEM
SK-MEL-28 = system: SK-MEL-28
SK-OV-3 = system: SK-OV-3
EKVX = system: EKVX
K562 = system: K562
MDA-MB-231 = system: MDA-MB-231
PC-3 = system: PC-3
NCI/ADR-RES = system: NCI/ADR-RES
MDA-N = system: MDA-N
MCF7 = system: MCF7

In the case of Cc1cccc(C)c1NC(=O)CCC(=O)/N=C(\N)NC#N, the GI50 (OVCAR-4) is reported as > 100 µM (inactive), the GI50 (LOX IMVI) is reported as > 100 µM (inactive) and the GI50 (RPMI-8226) is reported as > 100 µM (inactive). The GI50 (IGROV-1) was > 100 µM (inactive), the GI50 (OVCAR-5) was > 100 µM (inactive) and the GI50 (NCI-H522) was > 100 µM (inactive). For the same molecule, the GI50 (DMS-114) was > 100 µM (inactive), the GI50 (UACC-257) was > 100 µM (inactive) and the GI50 (CAKI-1) was > 100 µM (inactive). The GI50 (SF-539) was > 100 µM (inactive), the GI50 (CCRF-CEM) was > 100 µM (inactive) and the GI50 (SK-MEL-28) was 77.8 µM (inactive). For the same molecule, the GI50 (SK-OV-3) was > 100 µM (inactive), the GI50 (EKVX) was > 100 µM (inactive) and the GI50 (K562) was > 100 µM (inactive).
For COc1cc2c(c(OC)c1OC)-c1ccc(OC)c(=O)cc1C(NC(=O)COc1ccccc1)CC2 (centres undefined), the GI50 (MDA-MB-231) was < 0.01 µM (active), the GI50 (OVCAR-4) was 3.11 µM (inactive) and the GI50 (LOX IMVI) was < 0.01 µM (active). For the same molecule, the GI50 (RPMI-8226) was < 0.01 µM (active), the GI50 (IGROV-1) was < 0.01 µM (active) and the GI50 (OVCAR-5) was 0.3 µM (active). The GI50 (NCI-H522) was < 0.01 µM (active), the GI50 (DMS-114) was < 0.01 µM (active) and the GI50 (UACC-257) was < 0.029 µM (active). The GI50 (CAKI-1) was < 0.01 µM (active), the GI50 (SF-539) was < 0.01 µM (active) and the GI50 (CCRF-CEM) was 0.0162 µM (active). The GI50 (SK-MEL-28) was 0.0498 µM (active), the GI50 (SK-OV-3) was 0.0282 µM (active) and the GI50 (PC-3) was < 0.01 µM (active). The GI50 (NCI/ADR-RES) was 0.0546 µM (active), the GI50 (EKVX) was 0.731 µM (active) and the GI50 (MDA-N) was < 0.01 µM (active). For the same molecule, the GI50 (K562) was < 0.0208 µM (active) and the GI50 (MCF7) was < 0.01 µM (active).
CC1CCCC(C(O)CC2CC(=O)N(c3ccccc3)C(=O)C2)C1=O (centres undefined) was tested, and the GI50 (OVCAR-4) was > 100 µM (inactive), the GI50 (LOX IMVI) was > 100 µM (inactive) and the GI50 (RPMI-8226) was > 100 µM (inactive). The GI50 (IGROV-1) was > 100 µM (inactive), the GI50 (OVCAR-5) was > 100 µM (inactive) and the GI50 (NCI-H522) was > 100 µM (inactive). For the same molecule, the GI50 (DMS-114) was > 100 µM (inactive), the GI50 (UACC-257) was > 100 µM (inactive) and the GI50 (CAKI-1) was > 100 µM (inactive). For the same molecule, the GI50 (SF-539) was > 100 µM (inactive), the GI50 (CCRF-CEM) was > 100 µM (inactive) and the GI50 (SK-MEL-28) was > 100 µM (inactive). For the same molecule, the GI50 (SK-OV-3) was > 100 µM (inactive), the GI50 (EKVX) was > 100 µM (inactive) and the GI50 (K562) was > 100 µM (inactive).
O=[N+]([O-])c1ccc(-n2nnc(C3=NCCN3)c2-c2ccccc2)cc1 was tested, and the GI50 (OVCAR-4) was > 100 µM (inactive), the GI50 (LOX IMVI) was > 100 µM (inactive) and the GI50 (RPMI-8226) was > 100 µM (inactive). The GI50 (IGROV-1) was > 100 µM (inactive), the GI50 (OVCAR-5) was > 100 µM (inactive) and the GI50 (NCI-H522) was > 100 µM (inactive). The GI50 (DMS-114) was > 100 µM (inactive), the GI50 (UACC-257) was > 100 µM (inactive) and the GI50 (CAKI-1) was > 100 µM (inactive). For the same molecule, the GI50 (SF-539) was > 100 µM (inactive), the GI50 (CCRF-CEM) was > 100 µM (inactive) and the GI50 (SK-MEL-28) was > 100 µM (inactive). The GI50 (SK-OV-3) was > 100 µM (inactive), the GI50 (EKVX) was > 100 µM (inactive) and the GI50 (K562) was > 100 µM (inactive).
CCOc1ccccc1NC(=O)C1=C(C)NC(C)=C(C(=O)Nc2ccccc2OCC)C1c1cccc([N+](=O)[O-])c1 was tested, and the GI50 (OVCAR-4) was 14.2 µM (inactive), the GI50 (LOX IMVI) was 66.8 µM (inactive) and the GI50 (RPMI-8226) was 8.22 µM (inactive). The GI50 (IGROV-1) was > 100 µM (inactive), the GI50 (OVCAR-5) was > 100 µM (inactive) and the GI50 (NCI-H522) was 22.4 µM (inactive). For the same molecule, the GI50 (DMS-114) was 46.3 µM (inactive), the GI50 (UACC-257) was 27.2 µM (inactive) and the GI50 (CAKI-1) was 5.9 µM (inactive). For the same molecule, the GI50 (SF-539) was 40.2 µM (inactive), the GI50 (CCRF-CEM) was 37.9 µM (inactive) and the GI50 (SK-MEL-28) was > 100 µM (inactive). For the same molecule, the GI50 (SK-OV-3) was > 100 µM (inactive), the GI50 (EKVX) was 30.1 µM (inactive) and the GI50 (K562) was 28.2 µM (inactive).
For CC(=O)CC(=O)N(CCN(C(=O)CC(C)=O)c1ccccc1)c1ccccc1, the GI50 (OVCAR-4) was > 100 µM (inactive), the GI50 (LOX IMVI) was > 100 µM (inactive) and the GI50 (RPMI-8226) was 72.9 µM (inactive). The GI50 (IGROV-1) was > 100 µM (inactive), the GI50 (OVCAR-5) was > 100 µM (inactive) and the GI50 (NCI-H522) was 84.7 µM (inactive). The GI50 (DMS-114) was > 100 µM (inactive), the GI50 (UACC-257) was 32.2 µM (inactive) and the GI50 (CAKI-1) was > 100 µM (inactive). For the same molecule, the GI50 (SF-539) was > 100 µM (inactive), the GI50 (CCRF-CEM) was 58.2 µM (inactive) and the GI50 (SK-MEL-28) was > 100 µM (inactive). For the same molecule, the GI50 (SK-OV-3) was > 100 µM (inactive), the GI50 (EKVX) was > 100 µM (inactive) and the GI50 (K562) was > 100 µM (inactive).
For Fc1cccc(/C=N/C23CC4CC(CC(C4)C2)C3)c1, the GI50 (OVCAR-4) was > 100 µM (inactive), the GI50 (LOX IMVI) was > 100 µM (inactive) and the GI50 (RPMI-8226) was > 100 µM (inactive). For the same molecule, the GI50 (IGROV-1) was > 100 µM (inactive), the GI50 (OVCAR-5) was > 100 µM (inactive) and the GI50 (NCI-H522) was > 100 µM (inactive). The GI50 (DMS-114) was > 100 µM (inactive), the GI50 (UACC-257) was > 100 µM (inactive) and the GI50 (CAKI-1) was > 100 µM (inactive). The GI50 (SF-539) was > 100 µM (inactive), the GI50 (CCRF-CEM) was > 100 µM (inactive) and the GI50 (SK-MEL-28) was > 100 µM (inactive). For the same molecule, the GI50 (SK-OV-3) was > 100 µM (inactive), the GI50 (EKVX) was > 100 µM (inactive) and the GI50 (K562) was > 100 µM (inactive).
In the case of COC(=O)[C@@]12C(=O)C=CC(=O)[C@@H]1C1C(=CC2COC(C)=O)O[C@@H]2OC3(CCCCC3)O[C@H]12 (some centres undefined), the GI50 (MDA-MB-231) is reported as 19.5 µM (inactive), the GI50 (OVCAR-4) is reported as 5.24 µM (inactive) and the GI50 (LOX IMVI) is reported as 9.95 µM (inactive). For the same molecule, the GI50 (RPMI-8226) was 2.99 µM (inactive), the GI50 (IGROV-1) was 16 µM (inactive) and the GI50 (OVCAR-5) was 16.7 µM (inactive). For the same molecule, the GI50 (NCI-H522) was 2.21 µM (inactive), the GI50 (DMS-114) was 4.92 µM (inactive) and the GI50 (UACC-257) was 16.3 µM (inactive). For the same molecule, the GI50 (CAKI-1) was 12.6 µM (inactive), the GI50 (SF-539) was 10.4 µM (inactive) and the GI50 (CCRF-CEM) was 8.13 µM (inactive). For the same molecule, the GI50 (SK-MEL-28) was 17.2 µM (inactive), the GI50 (SK-OV-3) was 16.1 µM (inactive) and the GI50 (PC-3) was 12.6 µM (inactive). The GI50 (NCI/ADR-RES) was 12.8 µM (inactive), the GI50 (EKVX) was 15.4 µM (inactive) and the GI50 (MDA-N) was 12.6 µM (inactive). For the same molecule, the GI50 (K562) was 4.15 µM (inactive) and the GI50 (MCF7) was 14.1 µM (inactive).
In the case of CCN(c1n[n+]2c(-c3ccccc3)csc2s1)c1n[n+]2c(-c3ccccc3)csc2s1, the GI50 (OVCAR-4) is reported as 35.4 µM (inactive), the GI50 (LOX IMVI) is reported as 57.9 µM (inactive) and the GI50 (RPMI-8226) is reported as 29.6 µM (inactive). The GI50 (IGROV-1) was > 100 µM (inactive), the GI50 (OVCAR-5) was > 100 µM (inactive) and the GI50 (NCI-H522) was 35.6 µM (inactive). For the same molecule, the GI50 (DMS-114) was 25.9 µM (inactive), the GI50 (UACC-257) was 36.9 µM (inactive) and the GI50 (SF-539) was > 100 µM (inactive). The GI50 (CCRF-CEM) was 32.5 µM (inactive), the GI50 (SK-MEL-28) was 79.1 µM (inactive) and the GI50 (SK-OV-3) was > 100 µM (inactive). The GI50 (EKVX) was > 100 µM (inactive) and the GI50 (K562) was 17.5 µM (inactive).
Cc1c(C(=O)/C=C/c2ccccc2)[n+]([O-])c2ccccc2[n+]1[O-] was tested, and the GI50 (OVCAR-4) was 15 µM (inactive), the GI50 (LOX IMVI) was 14.5 µM (inactive) and the GI50 (RPMI-8226) was 17.8 µM (inactive). For the same molecule, the GI50 (IGROV-1) was 17.5 µM (inactive), the GI50 (OVCAR-5) was 16.7 µM (inactive) and the GI50 (NCI-H522) was 6.62 µM (inactive). For the same molecule, the GI50 (DMS-114) was 10.2 µM (inactive), the GI50 (UACC-257) was 16.6 µM (inactive) and the GI50 (CAKI-1) was 17.5 µM (inactive). The GI50 (SF-539) was 15.5 µM (inactive), the GI50 (CCRF-CEM) was 22.2 µM (inactive) and the GI50 (SK-MEL-28) was 16.7 µM (inactive). For the same molecule, the GI50 (SK-OV-3) was 20.1 µM (inactive), the GI50 (EKVX) was 14.9 µM (inactive) and the GI50 (K562) was 15.6 µM (inactive).
